Reference: PubChem BioAssay (NCI)
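How tested: cells in 96-well plates exposed to compound for 48 hours at five concentrations. Here, GI50 denotes the concentration required for 50% inhibition of growth. TGI: total growth inhibition.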

Experiments:
Test in all cases: NCI tumour cell line growth inhibition, 48 h
786-0 renal = tested on: 786-0 renal
A549 NSCLC = tested on: A549 NSCLC
ACHN renal = tested on: ACHN renal
BT-549 breast = tested on: BT-549 breast
CAKI-1 renal = tested on: CAKI-1 renal
CCRF-CEM leukemia = tested on: CCRF-CEM leukemia
COLO 205 colon = tested on: COLO 205 colon
EKVX NSCLC = tested on: EKVX NSCLC
HCC-2998 colon = tested on: HCC-2998 colon
HCT-116 colon = tested on: HCT-116 colon
HCT-15 colon = tested on: HCT-15 colon
HL-60(TB) leukemia = tested on: HL-60(TB) leukemia
HOP-62 NSCLC = tested on: HOP-62 NSCLC
HOP-92 NSCLC = tested on: HOP-92 NSCLC
HS 578T breast = tested on: HS 578T breast
HT29 colon = tested on: HT29 colon
IGROV1 ovarian = tested on: IGROV1 ovarian
K-562 leukemia = tested on: K-562 leukemia
KM12 colon = tested on: KM12 colon
LOX IMVI melanoma = tested on: LOX IMVI melanoma
M14 melanoma = tested on: M14 melanoma
MCF7 breast = tested on: MCF7 breast
MDA-MB-435 = tested on: MDA-MB-435
MOLT-4 leukemia = tested on: MOLT-4 leukemia
NCI-H226 lung = tested on: NCI-H226 lung
NCI-H23 lung = tested on: NCI-H23 lung
NCI-H460 lung = tested on: NCI-H460 lung
NCI-H522 lung = tested on: NCI-H522 lung
OVCAR-3 ovarian = tested on: OVCAR-3 ovarian
OVCAR-5 ovarian = tested on: OVCAR-5 ovarian
OVCAR-8 ovarian = tested on: OVCAR-8 ovarian
PC-3 prostate = tested on: PC-3 prostate
RPMI-8226 leukemia = tested on: RPMI-8226 leukemia
RXF 393 renal = tested on: RXF 393 renal
SF-268 CNS = tested on: SF-268 CNS
SF-295 CNS = tested on: SF-295 CNS
SK-MEL-2 melanoma = tested on: SK-MEL-2 melanoma
SK-MEL-28 melanoma = tested on: SK-MEL-28 melanoma
SK-MEL-5 melanoma = tested on: SK-MEL-5 melanoma
SN12C renal = tested on: SN12C renal
SNB-19 CNS = tested on: SNB-19 CNS
SW-620 colon = tested on: SW-620 colon
T-47D breast = tested on: T-47D breast
TK-10 renal = tested on: TK-10 renal
U251 CNS = tested on: U251 CNS
UACC-257 melanoma = tested on: UACC-257 melanoma
UACC-62 melanoma = tested on: UACC-62 melanoma
UO-31 renal = tested on: UO-31 renal

**Q.** Which GI50 (786-0 renal) does the source give for `COc1ccc(OC)c(-c2cc(-c3ccc(Cl)cc3)nn2-c2ccc(S(=O)(=O)NC(C)=O)cc2)c1` here?
**A.** 3.03 µM

**Q.** What about the TGI (786-0 renal) of the same molecule?
**A.** 12.1 µM

**Q.** And the GI50 (A549 NSCLC)?
**A.** 28.6 µM

**Q.** What about the TGI (A549 NSCLC) of the same molecule?
**A.** > 100 µM

**Q.** And the GI50 (ACHN renal)?
**A.** 3.23 µM

**Q.** What about the TGI (ACHN renal) of the same molecule?
**A.** 11.1 µM

**Q.** And the GI50 (BT-549 breast)?
**A.** 4.26 µM

**Q.** What about the TGI (BT-549 breast) of the same molecule?
**A.** 14.7 µM

**Q.** What about the GI50 (CAKI-1 renal) of the same molecule?
**A.** 37.6 µM

**Q.** And the TGI (CAKI-1 renal)?
**A.** > 100 µM

**Q.** What about the GI50 (CCRF-CEM leukemia) of the same molecule?
**A.** 20 µM

**Q.** What about the TGI (CCRF-CEM leukemia) of the same molecule?
**A.** 73.5 µM

**Q.** What about the GI50 (COLO 205 colon) of the same molecule?
**A.** 18.2 µM

**Q.** What about the TGI (COLO 205 colon) of the same molecule?
**A.** 46.7 µM

**Q.** What about the GI50 (EKVX NSCLC) of the same molecule?
**A.** 14.3 µM

**Q.** What about the TGI (EKVX NSCLC) of the same molecule?
**A.** 28 µM

**Q.** And the GI50 (HCC-2998 colon)?
**A.** 1.71 µM

**Q.** What about the TGI (HCC-2998 colon) of the same molecule?
**A.** 6.93 µM

**Q.** What about the GI50 (HCT-116 colon) of the same molecule?
**A.** 2.84 µM

**Q.** What about the TGI (HCT-116 colon) of the same molecule?
**A.** 11.2 µM

**Q.** And the GI50 (HCT-15 colon)?
**A.** 3.29 µM

**Q.** And the TGI (HCT-15 colon)?
**A.** 18.8 µM

**Q.** And the GI50 (HL-60(TB) leukemia)?
**A.** 3.7 µM

**Q.** What about the TGI (HL-60(TB) leukemia) of the same molecule?
**A.** 41.9 µM

**Q.** What about the GI50 (HOP-62 NSCLC) of the same molecule?
**A.** 10.5 µM

**Q.** What about the TGI (HOP-62 NSCLC) of the same molecule?
**A.** 22.2 µM

**Q.** And the GI50 (HOP-92 NSCLC)?
**A.** 10.2 µM

**Q.** And the TGI (HOP-92 NSCLC)?
**A.** 33.2 µM

**Q.** And the GI50 (HS 578T breast)?
**A.** 38.2 µM

**Q.** And the TGI (HS 578T breast)?
**A.** > 100 µM

**Q.** And the GI50 (HT29 colon)?
**A.** 5.54 µM

**Q.** What about the TGI (HT29 colon) of the same molecule?
**A.** > 100 µM

**Q.** And the GI50 (IGROV1 ovarian)?
**A.** 37.2 µM

**Q.** And the TGI (IGROV1 ovarian)?
**A.** > 100 µM

**Q.** What about the GI50 (K-562 leukemia) of the same molecule?
**A.** 3.18 µM

**Q.** What about the TGI (K-562 leukemia) of the same molecule?
**A.** > 100 µM

**Q.** What about the GI50 (KM12 colon) of the same molecule?
**A.** 20.3 µM

**Q.** What about the TGI (KM12 colon) of the same molecule?
**A.** 46.2 µM

**Q.** And the GI50 (LOX IMVI melanoma)?
**A.** 1.79 µM

**Q.** What about the TGI (LOX IMVI melanoma) of the same molecule?
**A.** 3.65 µM

**Q.** What about the GI50 (M14 melanoma) of the same molecule?
**A.** 3.04 µM

**Q.** What about the TGI (M14 melanoma) of the same molecule?
**A.** 8.21 µM

**Q.** And the GI50 (MCF7 breast)?
**A.** 26.4 µM

**Q.** What about the TGI (MCF7 breast) of the same molecule?
**A.** > 100 µM

**Q.** And the GI50 (MDA-MB-435)?
**A.** 45.3 µM

**Q.** What about the TGI (MDA-MB-435) of the same molecule?
**A.** > 100 µM

**Q.** And the GI50 (MOLT-4 leukemia)?
**A.** 5.62 µM

**Q.** And the TGI (MOLT-4 leukemia)?
**A.** 27.8 µM

**Q.** What about the GI50 (NCI-H226 lung) of the same molecule?
**A.** 4.07 µM

**Q.** And the TGI (NCI-H226 lung)?
**A.** 23.1 µM

**Q.** What about the GI50 (NCI-H23 lung) of the same molecule?
**A.** 11.3 µM

**Q.** And the TGI (NCI-H23 lung)?
**A.** 25.6 µM

**Q.** And the GI50 (NCI-H460 lung)?
**A.** 29.3 µM

**Q.** What about the TGI (NCI-H460 lung) of the same molecule?
**A.** > 100 µM

**Q.** What about the GI50 (NCI-H522 lung) of the same molecule?
**A.** 32.4 µM

**Q.** What about the TGI (NCI-H522 lung) of the same molecule?
**A.** > 100 µM

**Q.** And the GI50 (OVCAR-3 ovarian)?
**A.** 25.4 µM

**Q.** And the TGI (OVCAR-3 ovarian)?
**A.** 64.7 µM

**Q.** What about the GI50 (OVCAR-5 ovarian) of the same molecule?
**A.** 5.97 µM

**Q.** What about the TGI (OVCAR-5 ovarian) of the same molecule?
**A.** 19.3 µM

**Q.** What about the GI50 (OVCAR-8 ovarian) of the same molecule?
**A.** 21 µM

**Q.** And the TGI (OVCAR-8 ovarian)?
**A.** 84.3 µM

**Q.** And the GI50 (PC-3 prostate)?
**A.** 3.61 µM

**Q.** What about the TGI (PC-3 prostate) of the same molecule?
**A.** 21.9 µM

**Q.** What about the GI50 (RPMI-8226 leukemia) of the same molecule?
**A.** 4.75 µM

**Q.** What about the TGI (RPMI-8226 leukemia) of the same molecule?
**A.** 7.5 µM

**Q.** What about the GI50 (RXF 393 renal) of the same molecule?
**A.** 23.1 µM

**Q.** What about the TGI (RXF 393 renal) of the same molecule?
**A.** > 100 µM

**Q.** What about the GI50 (SF-268 CNS) of the same molecule?
**A.** 21.1 µM

**Q.** What about the TGI (SF-268 CNS) of the same molecule?
**A.** 60.9 µM

**Q.** And the GI50 (SF-295 CNS)?
**A.** 42.8 µM

**Q.** And the TGI (SF-295 CNS)?
**A.** > 100 µM

**Q.** And the GI50 (SK-MEL-2 melanoma)?
**A.** 26.6 µM

**Q.** What about the TGI (SK-MEL-2 melanoma) of the same molecule?
**A.** 70 µM

**Q.** What about the GI50 (SK-MEL-28 melanoma) of the same molecule?
**A.** 21.3 µM

**Q.** And the TGI (SK-MEL-28 melanoma)?
**A.** 57.9 µM

**Q.** What about the GI50 (SK-MEL-5 melanoma) of the same molecule?
**A.** 2.07 µM

**Q.** What about the TGI (SK-MEL-5 melanoma) of the same molecule?
**A.** 15.5 µM

**Q.** And the GI50 (SN12C renal)?
**A.** 3.02 µM

**Q.** What about the TGI (SN12C renal) of the same molecule?
**A.** 10.9 µM

**Q.** What about the GI50 (SNB-19 CNS) of the same molecule?
**A.** 10.6 µM

**Q.** And the TGI (SNB-19 CNS)?
**A.** 28.7 µM

**Q.** What about the GI50 (SW-620 colon) of the same molecule?
**A.** 5.39 µM

**Q.** And the TGI (SW-620 colon)?
**A.** 22.2 µM

**Q.** What about the GI50 (T-47D breast) of the same molecule?
**A.** 13.1 µM

**Q.** What about the TGI (T-47D breast) of the same molecule?
**A.** 36.1 µM

**Q.** What about the GI50 (TK-10 renal) of the same molecule?
**A.** 19.3 µM

**Q.** What about the TGI (TK-10 renal) of the same molecule?
**A.** 38.2 µM

**Q.** What about the GI50 (U251 CNS) of the same molecule?
**A.** 2.9 µM

**Q.** And the TGI (U251 CNS)?
**A.** 10.3 µM

**Q.** What about the GI50 (UACC-257 melanoma) of the same molecule?
**A.** 16.8 µM

**Q.** And the TGI (UACC-257 melanoma)?
**A.** 34.2 µM

**Q.** What about the GI50 (UACC-62 melanoma) of the same molecule?
**A.** 3.22 µM

**Q.** And the TGI (UACC-62 melanoma)?
**A.** 11.2 µM

**Q.** What about the GI50 (UO-31 renal) of the same molecule?
**A.** 34.8 µM

**Q.** And the TGI (UO-31 renal)?
**A.** > 100 µM
